# Test results reported in patent US20210052741A1, “GENE THERAPY METHODS AND COMPOSITIONS USING AUXOTROPHIC REGULATABLE CELLS” (AUXOLYTIC LTD, priority 2018, published 2021).
# Values joined by “and” are separate entries in the source; they are usually repeats but may differ in a detail not shown here. Equal entries are not always repeated.
# Columns and labels:
# Format in all cases: cell-based, human
# Mock T cells = experiment: 5-FOA selection, cell counts after 4 days; conditions: for Average of cells per volume unit / Average number of cells per volume unit: Mock; for Average of cells per volume unit: 4 days in 5-FOA without serum; for Average number of cells per volume unit: 4 days in 5-FOA
# Description: (§1) 5-FOA selects for uracil auxotrophic cells in other organisms (e.g. Boeke et al. 1984, Mol. Gen. Genet. 197(2):345-6), which is hereby incorporated by reference in its entirety). To investigate the potential utility of 5-FOA for the selection of uracil auxotrophs among human cells, the UMPS gene was targeted in human T cells by Cas9-gRNA complex electroporation followed by recovery (as shown in Example 2) followed by an assay of resistance to 5-FOA treatment (FIG. 3A). Cells were grown in 5-FOA and a variety of combinations of serum and uracil sources for 4 days before cell counting was performed.
# UMPS-7 targeted T cells = experiment: 5-FOA selection, cell counts after 4 days; conditions: for Average of cells per volume unit: UMPS-7, 4 days in 5-FOA without serum; for Average number of cells per volume unit: UMPS-7, 4 days in 5-FOA
# Description: as §1
# [1] = system: UMPS^KO/KO/GFP^+ K562 cells mixed with UMPS^WT/WT K562 cells; experiment: 5-FOA resistance in mixed K562 culture; conditions: for Percentages of GFP+ cells, Day 1 / Percentages of GFP+ cells, Day 2 / Percentages of GFP+ cells, Day 3 / Percentages of GFP+ cells, Day 4 / Percentages of GFP+ cells, Day 6 / Percentages of GFP+ cells, Day 8: with Uridine
# Description: To determine the resistance of UMP S knockout cells to 5-FOA the purified uMPS^KO/KO/GFP^+ K562 cells were mixed at an equal ratio with UMPS^wT/WT/GFP-negative K562 cells. The cells were cultured in the presence of Uridine and different concentrations of 5-FOA (FIG. 6F).
# UMPS^KO/KO hESCs = experiment: Auxotrophy assay with different uridine concentrations; conditions: for Viable cell counts: day 4 after seeding
# Description: The UMPS locus was disrupted in the hESCs by electroporation of Cas9 RNP and selection of a clone with InDels in exon 1 as evaluated by amplification and Sanger sequencing of the genomic locus. For gene editing, hESCs were treated with 10 μm ROCK inhibitor (Y-27632) for 24 hours before electroporation. Cells at 70-80% confluence were harvested with ACCUTASE® solution (Life Technologies). 500,000 cells were used per reaction with a SpCas9 concentration of 150 μg/mL (Integrated DNA Technologies) and a Cas9:sgRNA molar ratio of 1:3 and electroporation performed in P3 Primary Cell solution (Lonza) in 16-well NUCLEOCUVETTE™ Strips in the 4D NUCLEOFECTOR system (Lonza). Immediately after electroporation, cells were transferred into one well of a […]® protein mixture (Corning, Inc.)-coated 24 well plate containing 500 μl of mTeSR™ media ([…] Technologies) with 10 μM Y-27632. Media was changed 24 hours after editing and Y-27632 was removed 48 hours after.
# An auxotrophy assay was performed over four days with different concentrations of uridine. Microscope photos of wells were taken on day 4 after seeding UMPS^KO/KO hESCs at similar densities and culturing in the presence of different uridine concentrations. […] Quantification of viable cells on day 4 after seeding to evaluate the effect of different uridine concentrations is shown in Table 15.
# UMPS KO T cells = experiment: Auxotrophy assay in sorted T cells; conditions: for Relative viability on Day 4 (%) / Viable cells per ml: UMPS KO
# Description: (§2) These T cells were also subjected to an auxotrophy assay and the possibility to select these cells with 5-FOA was tested. […] Higher Uridine concentrations led to higher proliferation rates. Auxotrophic growth of UMPS KO or wild-type (WT) T cells is shown in FIG. 7B and Table 28.
# WT T cells = experiment: Auxotrophy assay in sorted T cells; conditions: for Viable cells per ml: Anti-CD3/-CD28 beads
# Description: as §2
smiles,measurement,setting,value
"O=C(O)c1[nH]c(=O)[nH]c(=O)c1F [5-FOA, 5-fluoroorotic acid]",Average of cells per volume unit,Mock T cells; No UMP/Uridine,12279.07 cells per volume unit and 16467.39 cells per volume unit
same,Average number of cells per volume unit,"Mock T cells; No Serum, No UMP/Uridine",13947.04 cells per volume unit
same,Average number of cells per volume unit,"Mock T cells; With Serum, No UMP/Uridine",13403.28 cells per volume unit
same,Average of cells per volume unit,UMPS-7 targeted T cells; No UMP/Uridine,52156.98 cells per volume unit and 67438.73 cells per volume unit
same,Average number of cells per volume unit,"UMPS-7 targeted T cells; No Serum, No UMP/Uridine",56895.21 cells per volume unit
same,Average number of cells per volume unit,"UMPS-7 targeted T cells; With Serum, No UMP/Uridine",54282.95 cells per volume unit
same,"Number of GFP + cells per μl, Day 1",[1]; 10 ug/ml 5-FOA,87013.04 cells per μl
same,"Number of GFP + cells per μl, Day 2",[1]; 10 ug/ml 5-FOA,163245.74 cells per μl
same,"Number of GFP + cells per μl, Day 4",[1]; 10 ug/ml 5-FOA,569281.05 cells per μl
same,"Number of GFP + cells per μl, Day 6",[1]; 10 ug/ml 5-FOA,550780.31 cells per μl
same,"Number of GFP + cells per μl, Day 8",[1]; 10 ug/ml 5-FOA,719624.13 cells per μl
same,"Percentages of GFP+ cells, Day 1",[1]; 10 ug/ml 5-FOA,45.4% and 48.5%
same,"Percentages of GFP+ cells, Day 2",[1]; 10 ug/ml 5-FOA,54.7% and 56.8%
same,"Percentages of GFP+ cells, Day 3",[1]; 10 ug/ml 5-FOA,65.6% and 64.0%
same,"Percentages of GFP+ cells, Day 4",[1]; 10 ug/ml 5-FOA,64.8% and 69.7%
same,"Percentages of GFP+ cells, Day 6",[1]; 10 ug/ml 5-FOA,79.1% and 76.5%
same,"Percentages of GFP+ cells, Day 8",[1]; 10 ug/ml 5-FOA,85.0% and 79.8%
same,"Number of GFP + cells per μl, Day 1",[1]; 100 ug/ml 5-FOA,115272.35 cells per μl
same,"Number of GFP + cells per μl, Day 2",[1]; 100 ug/ml 5-FOA,106377.73 cells per μl
same,"Number of GFP + cells per μl, Day 4",[1]; 100 ug/ml 5-FOA,376993.53 cells per μl
same,"Number of GFP + cells per μl, Day 6",[1]; 100 ug/ml 5-FOA,501940.62 cells per μl
same,"Number of GFP + cells per μl, Day 8",[1]; 100 ug/ml 5-FOA,693093.53 cells per μl
same,"Percentages of GFP+ cells, Day 1",[1]; 100 ug/ml 5-FOA,52.6% and 48.9%
same,"Percentages of GFP+ cells, Day 2",[1]; 100 ug/ml 5-FOA,67.1% and 64.2%
same,"Percentages of GFP+ cells, Day 3",[1]; 100 ug/ml 5-FOA,79.5% and 71.4%
same,"Percentages of GFP+ cells, Day 4",[1]; 100 ug/ml 5-FOA,85.2% and 74.4%
same,"Percentages of GFP+ cells, Day 6",[1]; 100 ug/ml 5-FOA,92.1% and 86.2%
same,"Percentages of GFP+ cells, Day 8",[1]; 100 ug/ml 5-FOA,92.8% and 82.8%
same,"Number of GFP + cells per μl, Day 1",[1]; 1000 ug/ml 5-FOA,75925.72 cells per μl
same,"Number of GFP + cells per μl, Day 2",[1]; 1000 ug/ml 5-FOA,79080.77 cells per μl
same,"Number of GFP + cells per μl, Day 4",[1]; 1000 ug/ml 5-FOA,151010.55 cells per μl
same,"Number of GFP + cells per μl, Day 6",[1]; 1000 ug/ml 5-FOA,217794.10 cells per μl
same,"Number of GFP + cells per μl, Day 8",[1]; 1000 ug/ml 5-FOA,339282.35 cells per μl
same,"Percentages of GFP+ cells, Day 1",[1]; 1000 ug/ml 5-FOA,51.9% and 49.4%
same,"Percentages of GFP+ cells, Day 2",[1]; 1000 ug/ml 5-FOA,65.0% and 58.9%
same,"Percentages of GFP+ cells, Day 3",[1]; 1000 ug/ml 5-FOA,72.9% and 66.9%
same,"Percentages of GFP+ cells, Day 4",[1]; 1000 ug/ml 5-FOA,82.0% and 77.7%
same,"Percentages of GFP+ cells, Day 6",[1]; 1000 ug/ml 5-FOA,92.6% and 90.5%
same,"Percentages of GFP+ cells, Day 8",[1]; 1000 ug/ml 5-FOA,90.1% and 75.7%
same,proliferation of UMPS knockout cells in 5-FOA,[1]; 10 and 100 μg/ml 5-FOA,proliferated well
same,fraction of UMPS^KO/KO cells,[1]; all 5-FOA concentrations used,increased over time
same,cell growth of UMPS knockout cells in 5-FOA,[1]; highest concentration (1000 ug/ml),slowed their cell growth down
O=c1ccn([C@@H]2O[C@H](CO)[C@@H](O)[C@H]2O)c(=O)[nH]1 [Uridine],Average of cells per volume unit,Mock T cells; with substrate,53052.43 cells per volume unit
same,survival in 5-FOA compared to control,Mock T cells; mock treated cells,improved the survival
same,survival in 5-FOA compared to control,UMPS-7 targeted T cells; UMPS targeted cells,improved the survival
same,Average of cells per volume unit,UMPS-7 targeted T cells; with substrate,77755.72 cells per volume unit
same,"proliferation (microscope photos, day 4)",UMPS^KO/KO hESCs; 2.5-250 μg/ml uridine,proliferated
same,Viable cell counts,UMPS^KO/KO hESCs; uridine 2.5 μg/ml,31040 and 38065 and 45189
same,Viable cell counts,UMPS^KO/KO hESCs; uridine 25 μg/ml,31810 and 39635 and 36283
same,Viable cell counts,UMPS^KO/KO hESCs; uridine 250 μg/ml,19147 and 31050 and 33955
same,proliferation,"UMPS KO T cells; Anti-CD3/-CD28 beads, different Uridine concentrations",proliferated only in the presence of Uridine
same,Relative viability on Day 4 (%),UMPS KO T cells; 2.5 μg/ml Uridine,78.78 and 79.28 and 79.74
same,Viable cells per ml,"UMPS KO T cells; 2.5 μg/ml uridine, Anti-CD3/-CD28 beads",226596 cells per ml and 217594 cells per ml and 224448 cells per ml
same,Relative viability on Day 4 (%),UMPS KO T cells; 25 μg/ml Uridine,82.16 and 81.57 and 83.09
same,Viable cells per ml,"UMPS KO T cells; 25 μg/ml uridine, Anti-CD3/-CD28 beads",282368 cells per ml and 268684 cells per ml and 304864 cells per ml
same,Relative viability on Day 4 (%),UMPS KO T cells; 250 μg/ml Uridine,85.66 and 85.29 and 84.38
same,Viable cells per ml,"UMPS KO T cells; 250 μg/ml uridine, Anti-CD3/-CD28 beads",319120 cells per ml and 345862 cells per ml and 348022 cells per ml
same,Relative viability of the cell population on Day 4,WT T cells; 2.5 μg/ml Uridine,84.64 and 82.19 and 80.45
same,Viable cells per ml,WT T cells; 2.5 μg/ml uridine,486192 cells per ml and 362626 cells per ml and 364194 cells per ml
same,Relative viability of the cell population on Day 4,WT T cells; 25 μg/ml Uridine,83.91 and 83.40 and 79.66
same,Viable cells per ml,WT T cells; 25 μg/ml uridine,384503 cells per ml and 410116 cells per ml and 338547 cells per ml
same,Relative viability of the cell population on Day 4,WT T cells; 250 μg/ml Uridine,86.05 and 86.97 and 87.62
same,Viable cells per ml,WT T cells; 250 μg/ml uridine,609575 cells per ml and 412493 cells per ml and 468354 cells per ml
